As a reminder, the Kd is the free concentration of one partner at which half of the binding sites on the other are occupied at equilibrium, for simple one-to-one binding.

The values that follow come from article PMC10743726, “Preclinical Evaluation of a Novel High-Affinity Radioligand [^99mTc]Tc-BQ0413 Targeting Prostate-Specific Membrane Antigen (PSMA)” (International Journal of Molecular Sciences, 2023).

One data set deals with PSMA. The settings on record: read-out: Equilibrium Dissociation Constant, KD; cited from earlier work.
The test system of data set [1] is PSMA-positive PC3-pip xenografts. In words: Biodistribution in PC3-pip tumor-bearing mice. Particulars: 40 pmol/mouse. The protocol: All in vivo experiments were carried out on BALB/c nu/nu or NMRI mice purchased from Scanbur A/S (Sollentuna, Sweden). All animal studies were approved by the Ethics Committee for Animal Research in Uppsala (Sweden), following the national legislation on the protection of laboratory animals (permit 5.8.18-00473/2021, approved 26 February 2021). Prostate cancer xenografts expressing PSMA were established in BALB/c nu/nu mice via subcutaneous injection of PC3-pip cell suspension in PBS (10^7 cells/animal in 100 µL). For in vivo specificity control, 10^7 cells/animal PSMA-negative SKOV-3 or PC-3 cells were implanted. […] Four mice per data point were used in in vivo experiments; two mice per data point were used in SPECT/CT (^99mTc-labeled BQ0413) and PET/CT (^68Ga-labeled PSMA-11) imaging experiments.
Each mouse was intravenously injected with 40 pmol of [^99mTc]Tc-BQ0413 (60 kBq; mass of injected compound was adjusted with unlabeled tracer). The mice were euthanized after lethal intraperitoneal injection of ketamine/xylazine followed by exsanguination 1, 3, and 6 h pi. The organs of interest were collected, weighed, and measured for their activity content using the gamma counter. The uptake activity in organs was calculated as the percentage of injected activity per gram (%IA/g) for blood, salivary gland, lungs, liver, spleen, pancreas, stomach, small intestine, kidneys, tumor, muscle, and bone tissue and as %IA for the remaining carcass and the rest of the intestines with content.
Animals were euthanized, organs were collected, and activity uptake was measured according to the protocol described above.

Regarding [^177Lu]Lu-PSMA-617, the equilibrium dissociation constant (Kd) on PSMA is 0.24 nM.
For the compound `O=C([O-])CN(CCN(CC(=O)[O-])Cc1cc(CCC(=O)NCCCCCC(=O)NCCCC[C@H](NC(=O)N[C@@H](CCC(=O)O)C(=O)O)C(=O)O)ccc1[O-])Cc1cc(CCC(=O)O)ccc1[O-].[68Ga+3].[OH3+]` [[^68Ga]Ga-PSMA-11], in data set [1] (1 h pi), the “Activity in GI tract (with content)” value was found to be 1.6 ± 0.3 %IA/sample, the Tumor-to-blood ratio was found to be 26 ± 9, the Tumor-to-bone ratio is reported as 34 ± 7 and the Tumor-to-kidneys ratio was found to be 0.09 ± 0.02. Besides, in data set [1] (1 h pi), the Tumor-to-liver ratio stood at 30 ± 14, the Tumor-to-lungs ratio was determined as 7 ± 2, the Tumor-to-muscle ratio is reported as 38 ± 11 and the Tumor-to-pancreas ratio is 15 ± 3. Moreover, in data set [1] (1 h pi), the Tumor-to-salivary gland ratio came to 5 ± 1, the Tumor-to-small intestine ratio amounted to 42 ± 14, the Tumor-to-spleen ratio was 0.7 ± 0.2 and the Tumor-to-stomach ratio was determined as 29 ± 11. In data set [1] (1 h pi), this compound showed an Uptake in blood of 0.8 ± 0.1 %IA/g, an Uptake in bone of 0.60 ± 0.06 %IA/g, an Uptake in kidneys of 226 ± 40 %IA/g and an Uptake in liver of 0.7 ± 0.2 %IA/g. Further, in data set [1] (1 h pi), the Uptake in lungs came to 3.2 ± 0.6 %IA/g, the Uptake in muscle was 0.54 ± 0.08 %IA/g, the Uptake in pancreas worked out at 1.3 ± 0.2 %IA/g and the “Uptake in salivary gland” value was determined as 4.4 ± 0.8 %IA/g. Moreover, in data set [1] (1 h pi), the “Uptake in small intestine” value is 0.5 ± 0.1 %IA/g, the Uptake in spleen was determined as 28 ± 4 %IA/g, the Uptake in stomach is 0.8 ± 0.3 %IA/g and the Uptake in tumor stood at 20 ± 3 %IA/g. In data set [1] (3 h pi), this compound displayed an Uptake in tumor of 20 ± 3 %IA/g. On PSMA, the Kd was 0.5 ± 0.2 nM.
